Data from patent US20240139136A1, “METHODS AND FORMULATIONS FOR TOPICAL ADMINISTRATION OF GABAPENTINOIDS” (VYLUMA INC., priority 2021, published 2024).

Tested on: rats with post-surgical corneal injuries
Experiment: Capsaicin-induced ipsilateral paw (eye) wipes in rats with post-surgical corneal injury
Format: in vivo
Conditions: 3% ophthalmic formulation, topical; challenge with 40 μL 0.1% capsaicin 15 minutes after administration; compared with capsaicin-alone baseline; FIG. 1
Method: Test ophthalmic formulations were administered to rats with post-surgical corneal injuries to test the efficacy of the formulations in treating corneal pain. A negative control was established by treating all animals with artificial tears (AT) and counting ipsilateral paw wipes for 60 seconds (FIG. 1, Baseline (Pre-induction)). 20 minutes later, a positive control was established by treating all animals with 40 μL 0.1% capsaicin and counting ipsilateral paw wipes for 60 seconds (FIG. 1, Baseline). Eyes were then flushed with balanced salt solution (BSS) and AT. 20 minutes later, all animals were treated with the test ophthalmic formulation (0.5% proparacaine (positive control), 3% nalbuphine, 3% pregabalin, or 3% ketamine). 15 minutes later, all animals were treated with 40 μL 0.1% capsaicin, and ipsilateral paw wipes were counted for 60 seconds (FIG. 1, 15 Minutes).

CNC1(c2ccccc2Cl)CCCCC1=O (stereo not drawn) [ketamine]
eye wipes (ipsilateral paw wipes counted for 60 seconds): borderline response

Oc1ccc2c3c1O[C@H]1[C@@H](O)CC[C@@]4(O)[C@@H](C2)N(CC2CCC2)CC[C@]314 [nalbuphine]
eye wipes (ipsilateral paw wipes counted for 60 seconds): significant decrease

CC(C)C[C@H](CN)CC(=O)O [pregabalin]
eye wipes (ipsilateral paw wipes counted for 60 seconds): significant decrease
